Assay results from patent US20060069132A1, “Azolecarboxamide herbicides” (priority 2004, published 2006).

Tests used:
blackgrass = assay: Test B postemergence herbicide test; type: in vivo, Alopecurus myosuroides; settings: Postemergence, scale 0 (no effect) to 100 (complete control)
Outline: (§1)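 Formulated test chemicals went onto postemergence plants measuring 2 to 18 cm, at one to four leaves. For the paddy assay, species had reached two leaves. Scoring took place 13–15 days later by eye, relative to untreated plants, using 0 for no effect up to 100 for full control.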

ducksalad [1] = assay: Test C flooded paddy test; type: in vivo, Heteranthera limosa; settings: for Plant response rating, Ducksalad: visual rating after 12 to 14 days
giant foxtail = assay: Test A pre-/postemergence herbicide test; type: in vivo, Setaria faberi; settings: for Plant response rating, Foxtail, Giant: Postemergence; for Foxtail, Giant plant response rating: Preemergence
Outline: (§2)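 Both application timings were run together: directed soil spray over freshly planted seeds in sandy loam, and runoff spray onto 2–10 cm seedlings. Evaluation after ~10 days in greenhouse used a 0–100 visual scale versus untreated controls.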

[2] = tested on: common (oilseed) sunflower; assay: Test C pre-/postemergence herbicide test; type: in vivo, Helianthus annuus; settings: for Plant response rating, Sunflower: visual, 12 to 14 days
Outline: (§3)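 Emerged plants at the 1- to 4-leaf stage (2–18 cm), or freshly planted seeds, received test chemicals in a non-phytotoxic solvent mixture with surfactant. Response was visually scored against controls after 12 to 14 days in the greenhouse, on a 0 (no effect) to 100 (complete control) scale.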

ducksalad [3] = assay: Test B flooded paddy test; type: in vivo, Heteranthera limosa; settings: 1000 g ai/ha, visual rating, scale 0 to 100 (0 no effect, 100 complete control), 13 to 15 days
Outline: as §1

cocklebur = assay: Test C pre-/postemergence herbicide test; type: in vivo, Xanthium strumarium; settings: for Cocklebur plant response rating: 500 g ai/ha
Outline: as §3

woolly cupgrass = assay: Test C pre-/postemergence herbicide test; type: in vivo, Eriochloa villosa; settings: for Cupgrass, Woolly plant response rating: 500 g ai/ha
Outline: as §3

corn = assay: Test C pre-/postemergence herbicide test; type: in vivo, Zea mays; settings: for Corn plant response rating: 500 g ai/ha
Outline: as §3

barnyardgrass = assay: Test A pre-/postemergence herbicide test; type: in vivo, Echinochloa crus-galli; settings: for Plant response rating, Barnyardgrass: Postemergence; for Barnyardgrass plant response rating: Preemergence
Outline: as §2

large crabgrass = assay: Test A pre-/postemergence herbicide test; type: in vivo, Digitaria sanguinalis; settings: for Plant response rating, Crabgrass, Large: Postemergence; for Crabgrass, Large plant response rating: Preemergence
Outline: as §2

[4] = 500 g ai/ha, 0 to 100 scale, 0 no effect, 100 complete control
[5] = 2000 g ai/ha, 0 to 100 scale, 0 no effect, 100 complete control
[6] = 500 g ai/ha, visual rating, 0 to 100 scale (0 no effect, 100 complete control)
[7] = 125 g ai/ha, scale 0 (no effect) to 100 (complete control), visual, 12 to 14 days, preemergence
[8] = 250 g ai/ha, scale 0 to 100 (0 no effect, 100 complete control), visual, 12 to 14 days, preemergence
[9] = Postemergence, 125 g ai/ha, scale 0 to 100, 0 no effect, 100 complete control
[10] = Postemergence, 250 g ai/ha, scale 0 to 100, 0 no effect, 100 complete control
[11] = Preemergence, scale 0 to 100, 0 no effect, 100 complete control
[12] = postemergence, 62 g ai/ha, scale 0 to 100

Structure (SMILES): C#CCNC(=O)c1cccc(NC(=O)c2cc(C(C)(C)C)nn2CC)c1 [Compound 47]
- Blackgrass plant response rating (blackgrass; 125 g ai/ha): 10
- Plant response rating, Blackgrass (blackgrass; 500 g ai/ha, visual rating after 13 to 15 days): 10
- Ducksalad plant response rating (ducksalad [1]; 62 g ai/ha, scale 0 to 100 (0 no effect, 100 complete control)): 0
- Ducksalad plant response rating (ducksalad [1]; 125 g ai/ha, scale of 0 to 100, 0 is no effect, 100 is complete control): 70
- Plant response rating, Ducksalad (ducksalad [1]; 250 g ai/ha, scale 0 to 100 (0 no effect, 100 complete control)): 80
- Plant response rating, Ducksalad (ducksalad [1]; 500 g ai/ha, scale 0 to 100 (0 no effect, 100 complete control)): 80
- Plant response rating, Foxtail, Giant (giant foxtail; [4]): 90
- Plant response rating, Foxtail, Giant (giant foxtail; [5]): 85
- Foxtail, Giant plant response rating (giant foxtail; [6]): 90
- Foxtail, Giant plant response rating (giant foxtail; [5]): 100
- Plant response rating (0 = no effect, 100 = complete control), Sunflower ([2]; 62 g ai/ha, preemergence): 0
- Plant response rating, Sunflower ([2]; 125 g ai/ha, scale 0 (no effect) to 100 (complete control), preemergence): 0
- Plant response rating, Sunflower ([2]; 250 g ai/ha, scale 0 to 100 (0 no effect, 100 complete control), preemergence): 10
- Sunflower plant response rating ([2]; Preemergence, 500 g ai/ha, scale 0 to 100, 0 no effect, 100 complete control): 40
- Ducksalad plant response rating (ducksalad [3]): 80
- Plant response rating (0 = no effect, 100 = complete control), Cocklebur (cocklebur; 62 g ai/ha, preemergence): 0
- Plant response rating, Cocklebur (cocklebur; [7]): 0
- Plant response rating, Cocklebur (cocklebur; [8]): 0
- Cocklebur plant response rating (cocklebur; Postemergence, scale 0 to 100): 90
- Plant response rating, Cocklebur (cocklebur; [9]): 70
- Plant response rating, Cocklebur (cocklebur; [10]): 70
- Cocklebur plant response rating (cocklebur; [11]): 100
- Plant response rating, Cocklebur (cocklebur; [12]): 50
- Plant response rating (0 = no effect, 100 = complete control), Cupgrass, Woolly (woolly cupgrass; 62 g ai/ha, preemergence): 10
- Plant response rating, Cupgrass, Woolly (woolly cupgrass; [7]): 10
- Plant response rating, Cupgrass, Woolly (woolly cupgrass; [8]): 60
- Cupgrass, Woolly plant response rating (woolly cupgrass; Postemergence, scale 0 to 100): 80
- Plant response rating, Cupgrass, Woolly (woolly cupgrass; [9]): 60
- Plant response rating, Cupgrass, Woolly (woolly cupgrass; [10]): 70
- Cupgrass, Woolly plant response rating (woolly cupgrass; [11]): 80
- Plant response rating, Cupgrass, Woolly (woolly cupgrass; [12]): 60
- Plant response rating (0 = no effect, 100 = complete control), Corn (corn; 62 g ai/ha, preemergence): 0
- Plant response rating, Corn (corn; [7]): 0
- Plant response rating, Corn (corn; [8]): 0
- Corn plant response rating (corn; Postemergence, scale 0 to 100): 80
- Plant response rating, Corn (corn; [9]): 70
- Plant response rating, Corn (corn; [10]): 80
- Corn plant response rating (corn; [11]): 10
- Plant response rating, Corn (corn; [12]): 70
- Plant response rating, Barnyardgrass (barnyardgrass; [4]): 90
- Plant response rating, Barnyardgrass (barnyardgrass; [5]): 100
- Barnyardgrass plant response rating (barnyardgrass; [6]): 90
- Barnyardgrass plant response rating (barnyardgrass; [5]): 95
- Plant response rating, Crabgrass, Large (large crabgrass; [4]): 85
- Plant response rating, Crabgrass, Large (large crabgrass; [5]): 100
- Crabgrass, Large plant response rating (large crabgrass; [6]): 55
- Crabgrass, Large plant response rating (large crabgrass; [5]): 90
